Data reported in the NIST ThermoML archive (doi:10.1021/je100835n).
Numbers after ± are expanded uncertainties.

Settings: Liquid, Gas chromatography

vapor or sublimation pressure (338.15 K) [kPa]	vapor or sublimation pressure (348.15 K) [kPa]	vapor or sublimation pressure (358.15 K) [kPa]	vapor or sublimation pressure (368.15 K) [kPa]	vapor or sublimation pressure (378.15 K) [kPa]	vapor or sublimation pressure (388.15 K) [kPa]	vapor or sublimation pressure (398.15 K) [kPa]	vapor or sublimation pressure (408.15 K) [kPa]	vapor or sublimation pressure (418.15 K) [kPa]	vapor or sublimation pressure (428.15 K) [kPa]	vapor or sublimation pressure (438.15 K) [kPa]	vapor or sublimation pressure (308.15 K) [kPa]	vapor or sublimation pressure (318.15 K) [kPa]	vapor or sublimation pressure (328.15 K) [kPa]	SMILES
						0.0004326 ± 9.2e-05	0.001205 ± 0.00026	0.003194 ± 0.00068	0.008092 ± 0.0017	0.01965 ± 0.0042				C[Si](C)(C)O[Si](C)(C)O[Si](C)(C)O[Si](C)(C)O[Si](C)(C)O[Si](C)(C)O[Si](C)(C)O[Si](C)(C)O[Si](C)(C)O[Si](C)(C)O[Si](C)(C)O[Si](C)(C)O[Si](C)(C)C [octacosamethyltridecasiloxane]
0.0007271 ± 0.00015	0.001846 ± 0.00039	0.004449 ± 0.00094	0.01022 ± 0.0022	0.02248 ± 0.0048	0.04747 ± 0.01	0.09653 ± 0.02	0.1896 ± 0.04	0.3605 ± 0.077	0.6654 ± 0.14	1.194 ± 0.25				C[Si](C)(C)O[Si](C)(C)O[Si](C)(C)O[Si](C)(C)O[Si](C)(C)O[Si](C)(C)O[Si](C)(C)O[Si](C)(C)C [octadecamethyloctasiloxane]
				0.0005391 ± 0.00011	0.001446 ± 0.00031	0.003689 ± 0.00078	0.008993 ± 0.0019	0.02101 ± 0.0045	0.04716 ± 0.01	0.102 ± 0.022				C[Si](C)(C)O[Si](C)(C)O[Si](C)(C)O[Si](C)(C)O[Si](C)(C)O[Si](C)(C)O[Si](C)(C)O[Si](C)(C)O[Si](C)(C)O[Si](C)(C)O[Si](C)(C)C [tetracosamethylundecasiloxane]

Further lines, the compound ahead of its results:

SMILES	vapor or sublimation pressure (338.15 K) [kPa]	vapor or sublimation pressure (348.15 K) [kPa]	vapor or sublimation pressure (358.15 K) [kPa]	vapor or sublimation pressure (368.15 K) [kPa]	vapor or sublimation pressure (378.15 K) [kPa]	vapor or sublimation pressure (388.15 K) [kPa]	vapor or sublimation pressure (398.15 K) [kPa]	vapor or sublimation pressure (408.15 K) [kPa]	vapor or sublimation pressure (418.15 K) [kPa]	vapor or sublimation pressure (428.15 K) [kPa]	vapor or sublimation pressure (438.15 K) [kPa]	vapor or sublimation pressure (308.15 K) [kPa]	vapor or sublimation pressure (318.15 K) [kPa]	vapor or sublimation pressure (328.15 K) [kPa]
C[Si]1(C)O[Si](C)(C)O[Si](C)(C)O[Si](C)(C)O[Si](C)(C)O[Si](C)(C)O[Si](C)(C)O[Si](C)(C)O1 [hexadecamethylcyclooctasiloxane]	0.002101 ± 0.00045	0.004912 ± 0.001	0.01095 ± 0.0023	0.02337 ± 0.005	0.04791 ± 0.01	0.09466 ± 0.02	0.1807 ± 0.038	0.3344 ± 0.071	0.6006 ± 0.13					
C[Si](C)(C)O[Si](C)(C)O[Si](C)(C)O[Si](C)(C)O[Si](C)(C)O[Si](C)(C)O[Si](C)(C)C [hexadecamethylheptasiloxane]	0.003586 ± 0.00076	0.008232 ± 0.0017	0.01804 ± 0.0038	0.03789 ± 0.008	0.07651 ± 0.016	0.149 ± 0.032	0.2806 ± 0.06	0.5124 ± 0.11	0.909 ± 0.19	1.57 ± 0.33	2.645 ± 0.56			
C[Si]1(C)O[Si](C)(C)O[Si](C)(C)O[Si](C)(C)O[Si](C)(C)O[Si](C)(C)O[Si](C)(C)O[Si](C)(C)O[Si](C)(C)O[Si](C)(C)O1 [icosamethylcyclodecasiloxane]			0.0008201 ± 0.00017	0.002003 ± 0.00042	0.004666 ± 0.00099	0.01041 ± 0.0022	0.02229 ± 0.0047	0.046 ± 0.0098	0.09169 ± 0.019					
C[Si]1(C)O[Si](C)(C)O[Si](C)(C)O[Si](C)(C)O[Si](C)(C)O[Si](C)(C)O[Si](C)(C)O[Si](C)(C)O[Si](C)(C)O1 [octadecamethylcyclononasiloxane]	0.0004734 ± 0.0001	0.0012 ± 0.00025	0.002888 ± 0.00061	0.006628 ± 0.0014	0.01455 ± 0.0031	0.03069 ± 0.0065	0.06234 ± 0.013	0.1223 ± 0.026	0.2323 ± 0.049					
C[Si]1(C)O[Si](C)(C)O[Si](C)(C)O[Si](C)(C)O1 [octamethylcyclotetrasiloxane]	1.259 ± 0.27	2.063 ± 0.44	3.289 ± 0.7	5.113 ± 1.1								0.2359 ± 0.05	0.4269 ± 0.091	0.7452 ± 0.16
C[Si]1(C)O[Si](C)(C)O[Si](C)(C)O[Si](C)(C)O[Si](C)(C)O[Si](C)(C)O[Si](C)(C)O1 [tetradecamethylcycloheptasiloxane]	0.01 ± 0.0021	0.0213 ± 0.0045	0.04349 ± 0.0092	0.08542 ± 0.018	0.1619 ± 0.034	0.2968 ± 0.063	0.528 ± 0.11	0.9129 ± 0.19	1.538 ± 0.33					
C[Si](C)(C)O[Si](C)(C)O[Si](C)(C)O[Si](C)(C)O[Si](C)(C)O[Si](C)(C)C [tetradecamethylhexasiloxane]	0.01845 ± 0.0039	0.03767 ± 0.008	0.07392 ± 0.016	0.1398 ± 0.03	0.2557 ± 0.054	0.4533 ± 0.096	0.7809 ± 0.17	1.31 ± 0.28	2.143 ± 0.45	3.427 ± 0.73	5.364 ± 1.1			
